≈ marks a conversion by molar mass, not a printed value. Read-outs that look alike come from different tables or passages of the source.
Experiments:
[1] = system: Bacillus subtilis ATCC 6633; test: Broth microdilution MIC/MBC; conditions: ATCC6633
[2] = system: Staphylococcus aureus ATCC 25923; test: Broth microdilution MIC/MBC; conditions: Staphylococcus aureus, ATCC25923
[3] = system: Staphylococcus epidermidis ATCC 12228; test: Broth microdilution MIC/MBC; conditions: ATCC12228
[4] = system: Micrococcus luteus ATCC 10240; test: Broth microdilution MIC/MBC; conditions: Micrococcus luteus, ATCC10240
[5] = system: Bacillus cereus ATCC 10876; test: Broth microdilution MIC/MBC; conditions: Bacillus cereus, ATCC10876
[6] = system: Candida albicans ATCC 10231; test: Broth microdilution MIC/MFC; assay type: cell-based
Excerpt: (§1) Procedures of in vitro antimicrobial assays are described in Supplementary Materials.
(§2) 2. Microbiology – in vitro antimicrobial activity assays […]
(§3) using the broth microdilution method according to the European Committee on Antimicrobial Susceptibility Testing (EUCAST) and Clinical and Laboratory Standards Institute guidelines against a panel of reference and clinical or saprophytic strains of mi croorganisms, including the Gram-positive bacteria: Staphylococcus aureus ATCC 43300 (Methi-cillin Resistant S. aureus – MRSA), Staphylococcus aureus ATCC 29213 (Methicillin Susceptible S. aureus – MSSA), Staph-ylococcus epidermidis ATCC 12228, Micrococcus luteus ATCC 10240, Bacillus subtilis ATCC 6633 and Bacillus cereus ATCC 10876), Gram-negative bacteria: Bordetella bronchiseptica ATCC 4617, Escherichia coli ATCC 25922, Klebsiella pneumoniae ATCC 13883, Proteus mirabilis ATCC 12453, Salmonella typhimurium ATCC 14028 and Pseudomonas aeruginosa ATCC 9027, and fungi belonging to yeasts: Candida albicans ATCC 10231, Candida albicans ATCC 2091, Candida parapsilosis ATCC 22019, Candida glabrata ATCC 90030 and Candida krusei ATCC 14243. The microorganisms belonging to ATCC originated from American Type Culture Collection, routinely used for the evaluation of antimicrobials. All the used microbial cultures were first subcultured on nutrient agar or Sabouraud agar at 35°C for 18-24 h or 30°C for 24-48 h for bacteria […]
(§4) The surface of Mueller-Hinton agar (for bacteria) and RPMI 1640 with MOPS (for fungi) were inoculated with the suspensions of bacterial or fungal species. Microbial suspensions were prepared in sterile saline with an optical density of McFarland standard scale 0.5. The samples containing the compounds were dissolved in dimethyl sulfoxide (DMSO).
(§5) Furthermore, the bacterial and fungal suspensions put onto the Petri dishes with solid media containing 2 mg/mL of the tested compounds followed were incubated at 37°C for 24h and 30°C for 48h for bacteria and fungi, respectively.
(§6) The inhibition of microbial growth was estimated comparing with a control culture prepared without any tested sam- […]
(§7) antifungal compounds, respectively.
(§8) Subsequently, MIC (Minimal Inhibitory Concentration) of the compounds was examined by the microdilution broth method, using their two-fold dilutions in Mueller-Hinton broth (for bacteria) and RPMI 1640 broth with MOPS (for fungi) prepared in the 96-well polystyrene plates. The final concentrations of the compounds ranged from 1000 to 0.488 µg/mL. Microbial suspensions were prepared in 0.85% NaCl with an optical density of 0.5 McFarland standard. Next each bacterial or fungal suspension was added per each well containing broth and various concentrations of the exam-ined compounds. After incubation, the MIC was assessed spectrophotometrically as the lowest concentration of the […]
(§9) Appropriate DMSO, growth and sterile controls were carried out. The medium with no tested substances was used as a control The MBC (Minimal Bactericidal Concentration) and MFC (Minimal Fungicidal Concentration) are defined as the lowest concentration of the compounds that is required to kill a particular bacterial or fungal species. The MBC/MFC was determined by removing the culture used for the MIC determination from each well and spotted onto the appro-priate agar medium. The plates were incubated under appropriate conditions for bacteria and fungi. The lowest com-pounds concentration with no visible growth observed was assessed as a bactericidal/fungicidal concentration. All the experiments were repeated three times and the representative data are presented.
(§10) 1. European Committee for Antimicrobial Susceptibility Testing (EUCAST) Determination of minimum inhibitory con-centrations (MICs) of antibacterial agents by broth dilution. EUCAST discussion document E. Dis 5.1. Clin. Microbiol.
(§11) 2. Clinical and Laboratory Standards Institute. Reference method for broth dilution antifungal susceptibility testing of […]

[7] = system: Candida albicans ATCC 2091; test: Broth microdilution MIC/MFC; assay type: cell-based
Excerpt: as §1, §2, §3, §4, §5, §6, §7, §8, §9, §10, §11

[8] = system: Candida glabrata ATCC 90030; test: Broth microdilution MIC/MFC; assay type: cell-based
Excerpt: as §1, §2, §3, §4, §5, §6, §7, §8, §9, §10, §11

[9] = system: Candida krusei ATCC 14243; test: Broth microdilution MIC/MFC; assay type: cell-based
Excerpt: as §1, §2, §3, §4, §5, §6, §7, §8, §9, §10, §11

[10] = system: Candida parapsilosis ATCC 22019; test: Broth microdilution MIC/MFC; assay type: cell-based
Excerpt: as §1, §2, §3, §4, §5, §6, §7, §8, §9, §10, §11

Candida spp. = test: Broth microdilution, summary over reference yeasts; assay type: cell-based; conditions: for antifungal activity in words: reference yeasts from Candida spp.
Excerpt: as §1, §2, §3, §4, §5, §6, §7, §8, §9, §10, §11

[11] = system: Staphylococcus aureus ATCC 29213; test: Broth microdilution MIC/MBC; conditions: ATCC29213
[12] = system: Staphylococcus aureus ATCC 43300; test: Broth microdilution MIC/MBC; conditions: ATCC43300 / MRSA
Gram-positive bacteria = test: Broth microdilution, summary over reference Gram-positive bacteria; assay type: cell-based; conditions: for antibacterial activity in words: reference Gram-positive bacteria / studied bacteria
Excerpt: as §1, §2, §3, §4, §5, §6, §7, §8, §9, §10, §11

[13] = Nakaseomyces glabratus, ATCC90030, read-out: MIC
[14] = Pichia kudriavzevii, ATCC14243, read-out: MFC
[15] = Pichia kudriavzevii, ATCC14243, read-out: MIC
[16] = Lodderomyces parapsilosis, ATCC22019, read-out: MIC
[17] = Nakaseomyces glabratus, ATCC90030, read-out: MFC
[18] = range over the reference Candida spp. strains

SMILES	MIC [1] [µg/mL]	MIC [2] [µg/mL]	MIC [3] [µg/mL]	MIC [4] [µg/mL]	MIC [5] [µg/mL]	MFC ([6]; ATCC10231, read-out: MFC) [µg/mL]	MIC ([6]; ATCC10231, read-out: MIC) [µg/mL]	MIC ([7]; ATCC2091, read-out: MIC) [µg/mL]	MIC [8, 13] [µg/mL]	MFC [9, 14] [µg/mL]	MIC [9, 15] [µg/mL]	MIC [10, 16] [µg/mL]	antifungal activity in words (Candida spp.)	melting point [°C]	MBC [2] [µg/mL]	MIC [11] [µg/mL]	MIC [12] [µg/mL]	MBC [3] [µg/mL]	MBC [4] [µg/mL]	antibacterial activity in words (Gram-positive bacteria)	further results
CC1(C)S[C@@H]2[C@H](NC(=O)[C@H](N)c3ccccc3)C(=O)N2[C@H]1C(=O)O [APC, ampicillin, reference compound]	62.5 (≈ 179 µM)	–	–	–	–	–	–	–	–	–	–	–	–	–	–	–	–	–	–	–	–
CO/N=C(\C(=O)N[C@@H]1C(=O)N2C(C(=O)O)=C(COC(N)=O)CS[C@H]12)c1ccco1 [CFX, cefuroxime, reference compound]	15.6 (≈ 36.8 µM)	0.49 (≈ 1.15 µM)	0.24 (≈ 0.566 µM)	0.98 (≈ 2.31 µM)	31.2 (≈ 73.6 µM)	–	–	–	–	–	–	–	–	–	–	–	–	–	–	–	–
NNC(=O)c1ccccc1I [Compound 4, 2-iodobenzohydrazide]	> 1000	500 (≈ 1910 µM)	1000 (≈ 3820 µM)	1000 (≈ 3820 µM)	> 1000	> 1000	1000 (≈ 3820 µM)	> 1000	> 1000	> 1000	1000 (≈ 3820 µM)	> 1000	mild activity or were inactive	182 to 189	> 1000	> 1000	> 1000	> 1000	> 1000	–	–
O=C(N/N=C/c1cccc([N+](=O)[O-])c1O)c1ccccc1I [Compound 7, N-[(2-hydroxy-3-nitrophenyl)methylidene]-2-iodobenzohydrazide]	1000 (≈ 2430 µM)	500 (≈ 1220 µM)	125 (≈ 304 µM)	1000 (≈ 2430 µM)	> 1000	> 1000	1000 (≈ 2430 µM)	> 1000	> 1000	–	> 1000	> 1000	mild activity or were inactive	240 to 245	> 1000	> 1000	> 1000	1000 (≈ 2430 µM)	> 1000	–	MBC [1]: > 1000 µg/mL
CCOc1cccc(/C=N/NC(=O)c2ccccc2I)c1O [Compound 10, N-[(3-ethoxy-2-hydroxyphenyl)methylidene]-2-iodobenzohydrazide]	> 1000	> 1000	> 1000	> 1000	> 1000	–	> 1000	> 1000	1000 (≈ 2440 µM)	> 1000	1000 (≈ 2440 µM)	> 1000	mild activity or were inactive	167 to 170	–	> 1000	> 1000	–	–	no antimicrobial effect	MFC [8, 17]: > 1000 µg/mL
O=C(N/N=C/c1cc(O)ccc1O)c1ccccc1I [Compound 11, N-[(2,5-dihydroxyphenyl)methylidene]-2-iodobenzohydrazide]	> 1000	> 1000	> 1000	> 1000	> 1000	> 1000	1000 (≈ 2620 µM)	> 1000	1000 (≈ 2620 µM)	–	> 1000	> 1000	mild activity or were inactive	211 to 214	–	> 1000	> 1000	–	–	no antimicrobial effect	MFC [8, 17]: > 1000 µg/mL
O=C(N/N=C/c1cc(Cl)cc(I)c1O)c1ccccc1I [Compound 12, N-[(5-chloro-2-hydroxy-3-iodophenyl)methylidene]-2-iodobenzohydrazide]	1000 (≈ 1900 µM)	125 (≈ 237 µM)	250 (≈ 475 µM)	31.2 (≈ 59.4 µM)	500 (≈ 950 µM)	> 1000	500 (≈ 950 µM)	500 (≈ 950 µM)	250 (≈ 475 µM)	> 1000	500 (≈ 950 µM)	1000 (≈ 1900 µM)	moderate or mild	215 to 220	> 1000	1000 (≈ 1900 µM)	1000 (≈ 1900 µM)	500 (≈ 950 µM)	250 (≈ 475 µM)	–	MFC ([7]; ATCC2091, read-out: MFC): > 1000 µg/mL; MFC [8, 17]: > 1000 µg/mL; MFC ([10]; Lodderomyces parapsilosis, ATCC22019, read-out: MFC): > 1000 µg/mL; MIC (Gram-positive bacteria; range over the reference Gram-positive bacteria, read-out: MIC): 31.2 to 1000 µg/mL (≈ 59.4 to 1900 µM); MFC (Candida spp.; [18]): ≥ 1000 µg/mL; MIC (Candida spp.; [18]): 250 to 1000 µg/mL (≈ 475 to 1900 µM); MBC [11]: > 1000 µg/mL; MBC [12]: > 1000 µg/mL; MBC [1]: > 1000 µg/mL; MBC [5]: > 1000 µg/mL
O=C(N/N=C/c1ccccc1O)c1cccc(I)c1 [Compound 16, N-[(2-hydroxyphenyl)methylidene]-3-iodobenzohydrazide]	–	–	–	–	–	–	–	–	–	–	–	–	–	201 to 203	–	–	–	–	–	no activity	–
O=C(N/N=C/c1cccc([N+](=O)[O-])c1O)c1ccc(I)cc1 [Compound 22, N-[(2-hydroxy-3-nitrophenyl)methylidene]-4-iodobenzohydrazide]	–	–	–	–	–	–	–	–	–	–	–	–	no antifungal activity	198 to 202	–	–	–	–	–	No antimicrobial effect	–
C[C@@H]1[C@H](O)[C@@H](C)/C=C/C=C/CC/C=C/C=C/C=C/C=C/C(O[C@H]2O[C@H](C)[C@@H](O)[C@H](N)[C@@H]2O)CC2O[C@](O)(CC(O)C(O)CCC(O)CC(O)CC(O)CC(=O)O[C@H]1C)CC(O)C2C(=O)O (stereo partly shown) [NY*, nystatin, reference compound]	–	–	–	–	–	–	–	–	–	–	–	–	–	–	–	–	–	–	–	–	MFC [6]: 0.48 µg/mL (≈ 0.518 µM); MFC/MIC [6]: 1; MIC [6]: 0.48 µg/mL (≈ 0.518 µM); MFC [7]: 0.24 µg/mL (≈ 0.259 µM); MFC/MIC [7]: 1; MIC [7]: 0.24 µg/mL (≈ 0.259 µM); MFC [8]: 0.48 µg/mL (≈ 0.518 µM); MFC/MIC [8]: 2; MIC [8]: 0.24 µg/mL (≈ 0.259 µM); MFC [9]: 0.24 µg/mL (≈ 0.259 µM); MFC/MIC [9]: 1; MIC [9]: 0.24 µg/mL (≈ 0.259 µM); MFC [10]: 0.48 µg/mL (≈ 0.518 µM); MFC/MIC [10]: 2; MIC [10]: 0.24 µg/mL (≈ 0.259 µM)

Reference: PMC11356900, “Synthesis, Structural Properties and Biological Activities of Novel Hydrazones of 2-, 3-, 4-Iodobenzoic Acid” (Molecules, 2024)
